# Test results reported in PubChem BioAssay (NCI).
# Where “and” joins values, the source holds several entries; their conditions need not be identical. Identical values can stand only once.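 Cells were grown in 96-well plates and exposed to each compound for 48 hours at five concentrations; endpoints were interpolated linearly between bracketing concentrations, or set to the highest concentration if not reached. Here, GI50 denotes the concentration required for 50% inhibition of growth. Definition used: TGI = concentration required for complete inhibition of growth.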
# What was measured:
# Assay in all cases: DTP human tumour cell line panel, 48 h
# NCI-H23 lung = test system: NCI-H23 lung
# MALME-3M melanoma = test system: MALME-3M melanoma
# U251 CNS = test system: U251 CNS
# HT29 colon = test system: HT29 colon
# OVCAR-8 ovarian = test system: OVCAR-8 ovarian
# 786-0 renal = test system: 786-0 renal
# SNB-75 CNS = test system: SNB-75 CNS
# KM12 colon = test system: KM12 colon
# COLO 205 colon = test system: COLO 205 colon
# BT-549 breast = test system: BT-549 breast
Structure (SMILES),TGI (NCI-H23 lung),TGI (MALME-3M melanoma),TGI (U251 CNS),TGI (HT29 colon),TGI (OVCAR-8 ovarian),TGI (786-0 renal),TGI (SNB-75 CNS),TGI (KM12 colon),TGI (COLO 205 colon),GI50 (U251 CNS),GI50 (BT-549 breast),TGI (BT-549 breast),GI50 (COLO 205 colon),GI50 (OVCAR-8 ovarian),GI50 (786-0 renal),GI50 (KM12 colon),GI50 (MALME-3M melanoma),GI50 (SNB-75 CNS),GI50 (NCI-H23 lung),GI50 (HT29 colon)
CCC(=O)CC(=O)CCC(=O)Nc1cc(C)ccc1C,> 100 µM,> 100 µM,> 100 µM,> 100 µM,> 100 µM,> 100 µM,> 100 µM,> 100 µM,,,,,,,,,,,,
O=c1/c(=C/c2ccccc2[N+](=O)[O-])sc2nnc(-c3ccco3)n12,64 µM,47.1 µM,36.6 µM,> 100 µM,32.5 µM,> 100 µM,84.7 µM,33.4 µM,> 100 µM,,,,,,,,,,,
Cc1c2n(c(=O)[nH]c1=O)C1OC(CO)C(O2)C1O (centres undefined),> 100 µM,,> 100 µM,> 100 µM,> 100 µM,> 100 µM,> 100 µM,> 100 µM,> 100 µM,,,,,,,,,,,
c1ccc2cc(-c3cc4ccccc4s3)ccc2c1,> 100 µM,> 100 µM,> 100 µM,> 100 µM,> 100 µM,> 100 µM,93.7 µM,> 100 µM,> 100 µM,,,,,,,,,,,
O=C1c2ccccc2C(=O)N1CCn1ccc(NC(c2ccccc2)(c2ccccc2)c2ccccc2)nc1=O,60.2 µM,43.2 µM,32.3 µM,30.5 µM,> 100 µM,> 100 µM,74 µM,49.1 µM,31.4 µM,,,,,,,,,,,
O=C(Nc1ccn(CCO)c(=O)n1)c1ccccc1,,> 100 µM,> 100 µM,> 100 µM,> 100 µM,> 100 µM,> 100 µM,> 100 µM,> 100 µM,,,,,,,,,,,
CC1(C)COC(C2(C)C(=O)C=C(c3ccccc3)c3ccccc32)=N1 (centres undefined),> 100 µM,63.8 µM,> 100 µM,99 µM,> 100 µM,> 100 µM,> 100 µM,> 100 µM,> 100 µM,,,,,,,,,,,
NC(=S)N/N=C(\CC1OC(=O)c2ccccc21)c1ccc(Cl)cc1 (centres undefined),57.7 µM,> 100 µM,73.6 µM,65.9 µM,35.6 µM,> 100 µM,> 100 µM,52 µM,98.8 µM,,,,,,,,,,,
CC1=C(C(=O)Nc2ccc(F)c(Cl)c2)C(c2ccccc2O)NC(=S)N1 (centres undefined),,,> 50 µM,,> 50 µM,> 50 µM,,> 50 µM,> 50 µM,30.2 µM,19.2 µM,49.4 µM,> 50 µM,12.9 µM,> 50 µM,> 50 µM,,,,
O=C1CCC(Cl)=CC2CCCN12 (centres undefined),> 100 µM,> 100 µM,> 100 µM,> 100 µM,> 100 µM,> 100 µM,> 100 µM,,> 100 µM,,,,,,,,,,,
CC1(C)CC(=O)C(C=NC(=S)c2ccccc2)=C(O)C1,> 100 µM,,> 100 µM,> 100 µM,> 100 µM,> 100 µM,> 100 µM,> 100 µM,> 100 µM,,,> 100 µM,,,,,,,,
O=C(CCN(C(=O)O)S(=O)(=O)c1ccc(NC(=O)c2ccccc2)cc1)Nc1ccccc1,> 100 µM,> 100 µM,> 100 µM,> 100 µM,> 100 µM,> 100 µM,> 100 µM,> 100 µM,> 80.2 µM,,,,,,,,,,,
Clc1ccc2c(c1)[nH]c1c2nc2ccccn21,72.3 µM and 44.9 µM,> 100 µM and 35.7 µM,> 100 µM and 24.5 µM,45.4 µM and 28.9 µM,> 100 µM and 33.1 µM,37.5 µM and 33.1 µM,> 100 µM and 37.2 µM,35.7 µM and 32 µM,,> 100 µM and 11.9 µM,,,,44.5 µM and 17 µM,,,> 100 µM and 17.5 µM,32.7 µM and 14.7 µM,,
COc1cc(OCc2cccc(-c3ccc(C(O)c4nccs4)cc3)c2C)cc(OC)c1C=O (centres undefined),10.2 µM,7.9 µM,11.3 µM,13.6 µM,23.6 µM,7.2 µM,,11 µM,8.27 µM,2.74 µM,1.77 µM,6.78 µM,2.64 µM,2.9 µM,2.16 µM,3.02 µM,2.7 µM,,1.92 µM,2.83 µM
N.N.N.N.O=C([O-])CCl.O=C([O-])CCl.[Co+3].[O-][Cl+3]([O-])([O-])[O-],> 100 µM,> 100 µM,> 100 µM,> 100 µM,> 100 µM,> 100 µM,> 100 µM,> 100 µM,> 100 µM,> 100 µM,,,> 100 µM,> 100 µM,> 100 µM,> 100 µM,> 100 µM,61.3 µM,> 100 µM,> 100 µM
NC(N)=N/N=C/c1c(-c2ccsc2)nc2sccn12,26.4 µM,,30 µM,25.3 µM,61.7 µM,24.3 µM,26.4 µM,24.5 µM,,15.8 µM,22.3 µM,38.1 µM,,31.1 µM,12 µM,12.1 µM,,13.4 µM,13.5 µM,11.6 µM

Structure (SMILES),TGI (NCI-H23 lung),TGI (MALME-3M melanoma),TGI (U251 CNS),TGI (HT29 colon),TGI (OVCAR-8 ovarian),TGI (786-0 renal),TGI (SNB-75 CNS),TGI (KM12 colon),TGI (COLO 205 colon),GI50 (U251 CNS),GI50 (BT-549 breast),TGI (BT-549 breast),GI50 (COLO 205 colon),GI50 (OVCAR-8 ovarian),GI50 (786-0 renal),GI50 (KM12 colon),GI50 (MALME-3M melanoma),GI50 (SNB-75 CNS),GI50 (NCI-H23 lung),GI50 (HT29 colon)
CCC12CCCN(Cc3ccccc3)C1c1c(n(C)c3ccccc13)CC2 (centres undefined),> 253 µM,> 253 µM,> 253 µM,> 253 µM,> 253 µM,> 253 µM,,> 253 µM,> 253 µM,,,,,,,,,,,
OC(CC1SCCCS1)c1ccccc1 (centres undefined),> 100 µM,> 100 µM,> 100 µM,> 100 µM,> 100 µM,> 100 µM,> 100 µM,> 100 µM,> 100 µM,,,,,,,,,,,
CC(C)N(C(=O)C12C3C4C1C1C4(C#N)C3C12C#N)C(C)C (centres undefined),> 100 µM,> 100 µM,> 100 µM,> 100 µM,> 100 µM,> 100 µM,,,> 100 µM,,,,,,,,,,,
COc1ccc2occ(CCC(=O)O)c2c1,> 100 µM,,> 100 µM,> 100 µM,> 100 µM,> 100 µM,> 100 µM,,> 100 µM,,,,,,,,,,,
Cc1cn2c(=O)c3ncn(C4OC(CO)C(O)C4O)c3n(C)c2n1 (centres undefined),> 100 µM,> 100 µM,> 100 µM,> 100 µM,> 100 µM,> 100 µM,> 100 µM,> 100 µM,> 100 µM,,,,,,,,,,,
O=C1CCC2(c3ccc(Cl)cc3)Nc3ncccc3N12 (centres undefined),> 100 µM,> 100 µM,> 100 µM,> 100 µM,> 100 µM,> 100 µM,> 100 µM,> 100 µM,> 100 µM,,,,,,,,,,,
CCCCCCCCCCCCCC(=O)OCC(C[As](=O)(O)O)OC(=O)CCCCCCCCCCCCC (centres undefined),> 100 µM,> 100 µM,> 100 µM,> 100 µM,> 100 µM,> 100 µM,> 100 µM,> 100 µM,,,,,,,,,,,,
CC(C)(C)NNC(=O)CCn1[nH]c(=O)c(Cl)c(Cl)c1=O,> 100 µM,> 100 µM,> 100 µM,> 100 µM,> 100 µM,> 100 µM,> 100 µM,> 100 µM,> 100 µM,,,,,,,,,,,
CC(C)CCC1CC2C(=O)N(c3ccccc3)C(=O)C2c2[nH]c3ccccc3c21 (centres undefined),12.9 µM,15.1 µM,3.5 µM,11 µM,11.7 µM,15.9 µM,9.25 µM,14.8 µM,7.08 µM,,,,,,,,,,,
CC(C)C(CCl)NC(=O)c1cccc(C(=O)N[C@H](CCl)C(C)C)n1 (stereo in doubt),> 100 µM,> 100 µM,> 100 µM,> 100 µM,,> 100 µM,> 100 µM,> 100 µM,> 100 µM,,,,,,,,,,,
CC12C/C(=C\c3ccccc3)C(=O)C3C1CCCC32,> 100 µM,> 100 µM,> 100 µM,> 100 µM,> 100 µM,> 100 µM,> 100 µM,> 100 µM,> 100 µM,,,,,,,,,,,
Cc1cc(Nc2ccc(NC(=O)c3ccc(Nc4ccnc5ccccc45)cc3)cc2)nc(N)n1,,4.65 µM,,,,> 100 µM,43 µM,,,,2.25 µM,5.74 µM,,,3.06 µM,,2 µM,12.2 µM,,
NC(=S)N/N=C/C(=O)O,> 100 µM,,> 100 µM,> 100 µM,> 100 µM,> 100 µM,> 100 µM,> 100 µM,> 100 µM,> 100 µM,> 100 µM,> 100 µM,> 100 µM,> 100 µM,> 100 µM,> 100 µM,,> 100 µM,> 100 µM,> 100 µM
Nc1nc(Cl)cc(NCCCCCCCCNc2cc(Cl)nc(N)n2)n1,> 100 µM,,> 100 µM,> 100 µM,58.6 µM,> 100 µM,74.4 µM,56.9 µM,> 100 µM,,,,,,,,,,,
CC(C)C1=CC23CCC4C(C)(C(=O)O)CCCC4(C)C2CC1C1C(=O)N(c2ccc(Cc4ccc(N5C(=O)C6C7CC8C9(C)CCCC(C)(C(=O)O)C9CCC8(C=C7C(C)C)C6C5=O)cc4)cc2)C(=O)C13 (centres undefined),10.9 µM,30.4 µM,14.4 µM,8.58 µM,22.5 µM,22.8 µM,,20.2 µM,26.4 µM,,,,,,,,,,,
CCOC(=O)c1cnc2c(ccc3[nH]n(C)nc32)c1=O,> 100 µM,> 100 µM,68.9 µM,> 100 µM,> 100 µM,> 100 µM,> 100 µM,> 100 µM,> 100 µM,,,,,,,,,,,
